In ChEMBL document CHEMBL1133765, “QSAR model for drug human oral bioavailability” (J Med Chem, 2000):

What was measured:
[1] = octanol/water
clinical [2] = settings: human, in vivo, po
physchem [3] = assay: physchem
physchem [4] = settings: octanol/water, pH 6.5
clinical [5] = settings: human, in vivo, po; remark: listed apart in the source
[6] = octanol/water; remark: listed apart in the source
[7] = octanol/water; remark: listed apart in the source
clinical [8] = settings: human, in vivo, po; remark: listed apart in the source

SMILES	delta logD [1]	bioavailability (clinical [2]) [%]	pKa (physchem [3])	logD (physchem [4])	bioavailability (clinical [5]) [%]	delta logD [6]	logD [7]	bioavailability (clinical [8]; F) [%]	bioavailability (clinical [8]) [%]	logD ([7]; pH 6.5)
Cc1onc(-c2c(Cl)cccc2Cl)c1C(=O)N[C@@H]1C(=O)N2[C@@H]1SC(C)(C)[C@@H]2C(=O)O [DICLOXACILLIN]	0.9	79	2.8	-0.79						
O=C(NCCN1CCOCC1)c1ccc(Cl)cc1 [MOCLOBEMIDE]	-0.15	79	6.2	1.26						
CC(C)(C)NCC(O)COc1cccc2c1CCCC2=O (centres undefined) [BUNOLOL]	-0.9	79	9.3	-0.4						
Nc1c(CC(=O)O)cccc1C(=O)c1ccc(Br)cc1 [BROMFENAC]	0.9	79	4.3	1.39						
COc1ccccc1N1CCN(CCCNc2cc(=O)n(C)c(=O)n2C)CC1	-0.52	79	7.1	0.9						
OCCN1CCN(CCC=C2c3ccccc3Sc3ccc(C(F)(F)F)cc32)CC1	-0.83	79	8.1	2.88						
CCCC(=O)Nc1ccc(OCC(O)CNC(C)C)c(C(C)=O)c1 (centres undefined) [ACEBUTOLOL]					49					
CC(C)COCC(CN(Cc1ccccc1)c1ccccc1)N1CCCC1 (centres undefined) [BEPRIDIL]	-0.9	79	9.3	1.1						
Cc1ncc2n1-c1ccc(Cl)cc1C(c1ccccc1F)=NC2 [MIDAZOLAM]	-0.14		6.1	1.37	49					
COc1ccc2[nH]c([S+]([O-])Cc3ncc(C)c(OC)c3C)nc2c1 (centres undefined) [OMEPRAZOLE]	-0.02	79	5.2	2.21						
COc1ccccc1OCCNCC(O)COc1cccc2[nH]c3ccccc3c12 (centres undefined) [CARVEDILOL]	-0.9		9.3	1.31	49					
CC(C)(C)NCC(O)c1ccc(O)c(CO)c1 (centres undefined) [ALBUTEROL]	-0.9			-2.69	49					
CCOC(=O)C1=C(C)NC(C)=C(C(=O)OC)C1c1cccc([N+](=O)[O-])c1 (centres undefined) [NITRENDIPINE]						0	0.97	< 20		
CSc1ccc2c(c1)N(CCC1CCCCN1C)c1ccccc1S2 (centres undefined) [THIORIDAZINE]	-0.9			2.9	49					
CC(NCCc1ccc(O)cc1)C(O)c1ccc(O)cc1 (centres undefined) [RITODRINE]	-0.89			-1	49					
CCOc1ccc2ccccc2c1C(=O)N[C@@H]1C(=O)N2[C@@H]1SC(C)(C)[C@@H]2C(=O)O [NAFCILLIN]	0.9			-0.84	49					
CCOC(=O)C1(c2ccccc2)CCN(C)CC1 [MEPERIDINE]	-0.88	79		0.25						
COc1ccc2c3c1O[C@H]1[C@@H](O)C=C[C@H]4[C@@H](C2)N(C)CC[C@@]341 [CODEINE]						-0.8	-0.28		79	
CC(C)NC[C@H](O)COc1ccc(O)cc1 [PRENALTEROL]	-0.89		9.2	-1.61	49					

SMILES	delta logD [1]	bioavailability (clinical [2]) [%]	pKa (physchem [3])	logD (physchem [4])	bioavailability (clinical [5]) [%]	delta logD [6]	logD [7]	bioavailability (clinical [8]; F) [%]	bioavailability (clinical [8]) [%]	logD ([7]; pH 6.5)
NC(N)=Nc1nc(CSCCC(N)=NS(N)(=O)=O)cs1 [FAMOTIDINE]	-0.52		7.1	-1.27	49					
COc1cccc(C2(O)CCCCC2CN(C)C)c1 (centres undefined) [TRAMADOL]	-0.9	79	9.4	0.85						
O=C(NC1CCN(CCc2c[nH]c3ccccc23)CC1)c1ccccc1 [INDORAMIN]	-0.75		7.7	1.56	49					
OCCN1CCN(CC/C=C2/c3ccccc3Sc3ccc(Cl)cc32)CC1 [ZUCLOPENTHIXOL]	-0.83	79	8.1	2.71						
CN(C)CCCN1c2ccccc2CCc2ccccc21 [IMIPRAMINE]					49					
CC(C)NCC(O)COc1cccc2ccccc12 (centres undefined) [PROPRANOLOL]	-0.9				49					
Cc1cc2c(s1)Nc1ccccc1N=C2N1CCN(C)CC1 [OLANZAPINE]	-0.81	79	8	-0.02						
CN(C)CCC=C1c2ccccc2COc2ccccc21 [DOXEPIN]	-0.82		8	1.55	49					
COc1ccc2c(c1)N(C[C@H](C)CN(C)C)c1ccccc1S2 [LEVOMEPROMAZINE]	-0.89	79	9.2	1.98						
CC(C)(C)NC[C@@H](O)COc1ccccc1C1CCCC1	-0.9	79	9.3	1.35						
CN1CCC[C@@H]1CCO[C@](C)(c1ccccc1)c1ccc(Cl)cc1 [CLEMASTINE]	-0.89		9.2	1.65	49					
CCc1cccc2cc(C(O)CNC(C)(C)C)oc12 (centres undefined) [BUFURALOL]	-0.89	79	9	1						
CC(CN1c2ccccc2Sc2ccccc21)N(C)C (centres undefined) [PROMETHAZINE]	-0.89			2.21	49					
CCC(C)(C)NCC(O)COc1ccccc1C(=O)CCc1ccccc1 (centres undefined) [DIPRAFENONE]	-0.89		9.2	0.59	49					
CC(C)(C)NC[C@H](O)COc1nsnc1N1CCOCC1 [TIMOLOL]	-0.9	79	9.3	-0.99						
CSc1ccc(C(=O)c2[nH]c(=O)[nH]c2C)cc1 [ENOXIMONE]	0	79		2.32						
CC[C@H]1[C@@H]2C[C@H]3[C@@H]4N(C)c5ccccc5[C@]45C[C@@H]([C@@H]2[C@H]5O)N3[C@@H]1O [AJMALINE]	-0.25		6.5	2.42	49					
O=C(O)CCCc1ccc(N(CCCl)CCCl)cc1 [CHLORAMBUCIL]						0.82	2.29		> 80	
NS(=O)(=O)c1cc2c(cc1Cl)N=CNS2(=O)=O [CHLOROTHIAZIDE]	0.57		6.7	-0.45	49					

SMILES	delta logD [1]	bioavailability (clinical [2]) [%]	pKa (physchem [3])	logD (physchem [4])	bioavailability (clinical [5]) [%]	delta logD [6]	logD [7]	bioavailability (clinical [8]; F) [%]	bioavailability (clinical [8]) [%]	logD ([7]; pH 6.5)
CCOC(=O)Nc1ccc2c(c1)N(C(=O)CCN1CCOCC1)c1ccccc1S2 [MORICIZINE]	-0.21		6.4	2.73	49					
COCC(=O)O[C@]1(CCN(C)CCCc2nc3ccccc3[nH]2)CCc2cc(F)ccc2[C@@H]1C(C)C [MIBEFRADIL]	-0.9	79	9.3	1.25						
COc1cc2nc(N3CCN(C(=O)C4COc5ccccc5O4)CC3)nc(N)c2cc1OC (centres undefined) [DOXAZOSIN]	-0.25	79	6.5	1.14						
CN1CCC[C@H]1c1cccnc1 [NICOTINE]	-0.82			-0.34	49					
COc1ccc(C(=O)Nc2ccccc2CCC2CCCCN2C)cc1 (centres undefined) [ENCAINIDE]	-0.9		10.2	-0.34	49					
NS(=O)(=O)c1cc(C2(O)NC(=O)c3ccccc32)ccc1Cl (centres undefined) [CHLORTHALIDONE]	0	79		0.22						
COc1cc(N)c(Cl)cc1C(=O)NC1CCN(CCCOc2ccc(F)cc2)CC1OC (centres undefined) [CISAPRIDE]	-0.75		7.7	1.79	49					
CC(CCc1ccccc1)NCC(O)c1ccc(O)c(C(N)=O)c1 (centres undefined) [LABETALOL]	-0.9		9.3	0.35	49					
CC(C)n1c(/C=C/C(O)CC(O)CC(=O)O)c(-c2ccc(F)cc2)c2ccccc21 (centres undefined) [FLUVASTATIN]	0.9		4.5	1.42	49					
CNC(=C[N+](=O)[O-])NCCSCc1ccc(CN(C)C)o1 [RANITIDINE]						-0.84		79		-1.44
Fc1ccc([C@@H]2CCNC[C@H]2COc2ccc3c(c2)OCO3)cc1 [PAROXETINE]	-0.9	79	11.2	-1.96						
Cc1nnc2n1-c1sc(Br)cc1C(c1ccccc1Cl)=NC2 [BROTIZOLAM]	-0.14	79	6.2	2.63						
Cc1onc(-c2ccccc2)c1C(=O)N[C@@H]1C(=O)N2[C@@H]1SC(C)(C)[C@@H]2C(=O)O [OXACILLIN]	0.9			-1.32	49					
C[C@H](CS)C(=O)N1C[C@@H](Sc2ccccc2)C[C@H]1C(=O)O [ZOFENOPRILAT]	0.9	79	3.7	-0.64						
COc1ccc([C@@H]2Sc3ccccc3N(CCN(C)C)C(=O)[C@@H]2OC(C)=O)cc1 [DILTIAZEM]	-0.75			1.47	49					
CC(=O)Nc1ccc(O)cc1 [ACETAMINOPHEN]	0	79		0.51						
CCC(=O)O[C@](Cc1ccccc1)(c1ccccc1)[C@H](C)CN(C)C [PROPOXYPHENE]	-0.89			2.2	49					
COc1ccc(CCNCC(O)COc2cccc(C)c2)cc1OC (centres undefined) [BEVANTOLOL]	-0.87	79	8.4	1.11						
